Like-named read-outs stand apart in the source and are kept apart here.
Tests used:
[1] = test system: Hartley female guinea pigs; experiment: Measurement of external urethral sphincter electromyography; assay type: in vivo, guinea pig; conditions: Cavia porcellus, read-out: external urethral sphincter electromyography activity
Excerpt: The activating action of the compound of the formula (I) on the urethral sphincter electromyography was confirmed with the method shown below.
Hartley female guinea pigs with a body weight of 250 to 350 g were anesthetized with urethane (Sigma). The guinea pigs were fixed in a supine position and catheters (PE-50; Clay Adams) for administration of test compounds were inserted into the jugular vein. Further, a catheters (PE-160; Clay Adams), for an infusion of physiological saline into bladder and measurement of the intravesical pressure, were inserted through an incision into the dome of the bladder. Further, in order to measure the external urethral sphincter electromyography, two electrodes were inserted into both the left and right sides of the urethral opening to the urethral sphincter. The electrodes for measuring base voltages were placed under the skin of the hind part. The bladder catheter was branched over a three-way stopcock, and one was connected with a 50 mL syringe (Terumo) fixed to an infusion pump (Terumo). The other was connected to a pressure transducer (DX-100; Nihon Kohden Corporation) to transfer the signal of the transducer through an amplifier (AP-630G; Nihon Kohden Corporation) and a data acquisition system (PowerLab; AD Instruments) to a computer and record on a hard disk. The electrodes for electromyography measurement were connected to a control unit (JB-101J; Nihon Kohden Corporation) to transfer the signal through an amplifier (AP-651J; Nihon Kohden Corporation) and a data acquisition system (PowerLab; AD Instruments) to a computer and record on a hard disk. Further, the data were analyzed on the computer using a software (Chart; AD Instruments). […] The electromyography activity was analyzed by taking the lowest potential amplitude as a standard during the stabilization period and using the firing frequency over the standard amplitude as an indicator. At internals between the respective urinations (urine filling phase), the activity of the urethral sphincter electromyography was analyzed and its average value was calculated. After the stabilization period, the solvent and the test compound were administered at an increased dose at an interval of 40 minutes through the catheter placed into the jugular vein. The urethral sphincter electromyography activity after the administration of the solvent was taken as 100% and the urethral sphincter electromyography activity after the administration of the test compound was denoted as a percentage (%) of the electromyography activity after the administration of the solvent.

human 5-HT2C receptor = biological target: T1, human 5-HT2C receptor (Homo sapiens, UniProt P28335); experiment: Evaluation of 5-HT2C receptor agonist activity (intracellular calcium increase, FLIPR, CHO cells stably expressing the receptor); assay type: cell-based; conditions: for Emax: CHO, read-out: 5-HT2C agonist activity Emax
T1 construct: expressed in transfected cells
T1 sequence (P28335 33-458): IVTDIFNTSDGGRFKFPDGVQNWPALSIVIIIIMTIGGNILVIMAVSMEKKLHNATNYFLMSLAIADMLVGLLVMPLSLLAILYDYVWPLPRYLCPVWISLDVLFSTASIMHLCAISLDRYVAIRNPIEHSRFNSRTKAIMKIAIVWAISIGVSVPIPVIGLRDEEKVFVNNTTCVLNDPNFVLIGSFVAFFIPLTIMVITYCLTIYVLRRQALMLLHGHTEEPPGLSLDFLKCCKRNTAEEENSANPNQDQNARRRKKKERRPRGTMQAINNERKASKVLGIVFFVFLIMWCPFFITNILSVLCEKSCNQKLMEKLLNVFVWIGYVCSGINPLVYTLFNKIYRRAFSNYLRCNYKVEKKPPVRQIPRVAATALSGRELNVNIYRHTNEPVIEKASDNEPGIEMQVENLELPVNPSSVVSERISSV
Protocol: The agonist activity of the compound of the formula (I) on the 5-HT2C receptor was confirmed by the method shown below.
The human 5-HT2C receptor agonist activity was evaluated by measuring the increase of the ligand-dependent intracellular calcium concentration. CHO cells which stably expressing a human 5-HT2C receptor were used. The receptor-expressing cells were prepared by transfecting the genes of the human 5-HT2C receptor (Accession numbers: AF498983 (5-HT2C)) into CHO cells (dihydrofolic acid-deficient strain, DS Pharma Biomedical Co., Ltd.)) using a pEF-BOS vector (Nucleic Acids Research, vol. 18, No. 17). After transcription, the 5-HT2C is known to be subjected to RNA editing to cause differences in three kinds of amino acids, resulting in fourteen receptor isoforms. Among them, cells stably expressing an INI type of 5-HT2C receptor which had not been subjected to editing were used. Cells used for evaluation were cultured in a 10% fetal bovine serum (FBS)-containing medium (trade name: α-MEM, Invitrogen) at 37° C. and 5% carbon dioxide. On the day before the evaluation, the cells were suspended in a serum-free medium (trade name: CD-CHO, Invitrogen) containing 8 mM L-glutamine (trade name: L-glutamine 200 mM, Invitrogen, added to the medium at a final concentration of 8 mM) and dispensed into a 96-well poly-D-lysine-coated plate (trade name: Biocoat PDL96W Black/Clear, Japan Becton, Dickinson and Company)) at 4×10^4 cells/well and cultured at 37° C. and 5% carbon dioxide overnight. A solution including a washing solution (mixture of Hank's Balanced Salt Solution (HBSS)-sodium hydroxide (NaOH), 20 mM 2-[4-(2-hydroxyethyl)-1-piperazinyl]ethanesulfonic acid (HEPES)-sodium hydroxide (NaOH), 2.5 mM probenecid, and 0.1% bovine serum albumin (BSA)), and a 4 μM fluorescent reagent (trade name: Fluo4-AM, Dojindo Co., Ltd.) was used as a loading buffer and the medium of the 96-well plate which had been cultured overnight was replaced with a loading buffer. After leaving to stand (with light-shielding) at room temperature for 3 hours, the cells were washed with a plate washer (trade name: ELx405, BioTek Instruments, Inc.) in which a washing solution had been set up. The plates of the washed cells were set up in a system for measuring a calcium (Ca) concentration in a cell (trade name: FLIPR, Molecular Devices, Inc.). In this device, a test compound that had been dissolved in dimethyl sulfoxide and diluted in the washing solution at a predetermined concentration was added and set up to measure a change in the Ca concentrations in a cell. The difference between a maximum value and a minimum value in the change of the intracellular Ca concentration was determined and kept as measurement data.
Taking the maximum reaction of the 5-HT (agonist action with addition of 5-HT 10 μM) as 100% and the reaction of a solvent alone as 0%, the efficacy (Emax (%)) and potency (EC50 (nM)) of the present invention compound to the maximum reaction of the 5-HT were calculated with a logistic regression method.

[2] = intravenous administration at 3 mg/kg, urethane-anesthetized guinea pigs, activity after solvent taken as 100%
[3] = CHO cells stably expressing INI type human 5-HT2C receptor, intracellular Ca increase, logistic regression, read-out: 5-HT2C agonist activity EC50

| Structure (SMILES) | response vs control in vivo at 3 mg/kg [1, 2] [%] | EC50 (human 5-HT2C receptor; [3]) [nM] | Emax (human 5-HT2C receptor) [%] | melting point [°C] | response vs control in vivo at 3 mg/kg ([1]; iv) [%] | EC50 (human 5-HT2C receptor) [nM] |
| --- | --- | --- | --- | --- | --- | --- |
| CC(C)CN1CCCc2cc3c(cc21)CCNCC3 [Example 38] | ≥ 200 | 2.1 | 94 |  |  |  |
| COCCCN1CCOc2cc3c(cc21)CCNCC3.O=C(O)/C=C/C(=O)O [Example 59] | ≥ 200 | 7.1 | 108 | 141 to 145 |  |  |
| COCCN1CCCc2cc3c(c(C4CC4)c21)CCNCC3 [Example 81] | ≥ 200 | 0.84 | 114 |  |  |  |
| COCCN1CCOc2cc3c(c(C4CC4)c21)CCNCC3 [Example 88] | ≥ 200 | 1.1 | 105 |  |  |  |
| CCOCCN1CCOc2cc3c(c(C4CC4)c21)CCNCC3.O=C(O)/C=C/C(=O)O [Example 104] | ≥ 200 | 1.1 | 107 | 140 to 145 |  |  |
| COCCCN1CCOc2cc3c(c(C4CC4)c21)CCNCC3.O=C(O)/C=C/C(=O)O [Example 106] | ≥ 200 | 1.1 | 112 | 169 to 171 |  |  |
| COCCN1CCOc2cc3c(c(Br)c21)CCNCC3 [Example 135] | ≥ 200 | 2.9 | 112 |  |  |  |
| FCCCN1CCOc2cc3c(c(C4CC4)c21)CCNCC3.O=C(O)/C=C/C(=O)O [Example 141] |  |  | 100 | 144 to 147 | ≥ 200 | 0.36 |
| c1c2c(c(C3CC3)c3c1OCCN3C[C@@H]1CCCO1)CCNCC2 [Example 215] |  | 1 | 96 | 154 to 156 | ≥ 200 |  |
| CO[C@H](C)CN1CCOc2cc3c(c(C4CC4)c21)CCNCC3.O=C(O)/C=C/C(=O)O [Example 243] | ≥ 200 | 0.53 | 96 | 133 to 136 |  |  |
| Clc1cccc(CN2CCOc3cc4c(c(C5CC5)c32)CCNCC4)c1.O=C(O)CCC(=O)O [Example 258] | ≥ 200 | 1.9 | 97 | 139 to 141 |  |  |
| O=C(O)/C=C/C(=O)O.c1c2c(c(C3CC3)c3c1OCCN3CC1CCCOC1)CCNCC2 (stereo not shown) [Example 263] | ≥ 200 | 2.8 | 96 | 186 to 189 |  |  |
| Fc1ccccc1CN1CCOc2cc3c(c(C4CC4)c21)CCNCC3.O=C(O)/C=C/C(=O)O [Example 265] | ≥ 200 | 1.3 | 97 | 133 to 136 |  |  |
| O=C(O)/C=C/C(=O)O.c1ccc2c(c1)OCC(CN1CCOc3cc4c(c(C5CC5)c31)CCNCC4)O2 (stereo not shown) [Example 267] | ≥ 200 | 0.51 | 99 | 179 to 182 |  |  |
| c1ccc(OCCN2CCOc3cc4c(c(C5CC5)c32)CCNCC4)cc1 [Example 268] | ≥ 200 | 0.92 | 99 |  |  |  |
| Cc1ccccc1CN1CCOc2cc3c(c(C4CC4)c21)CCNCC3.O=C(O)/C=C/C(=O)O [Example 276] | ≥ 200 | 6.4 | 104 | 163 to 166 |  |  |
| Cc1cccc(CN2CCOc3cc4c(c(C5CC5)c32)CCNCC4)c1.O=C(O)/C=C/C(=O)O [Example 277] | ≥ 200 | 2.3 | 95 | 192 to 195 |  |  |
| Fc1ccc(F)c(CN2CCOc3cc4c(c(C5CC5)c32)CCNCC4)c1 [Example 283] | ≥ 200 | 1.7 | 90 |  |  |  |
| CO[C@H](CF)CN1CCOc2cc3c(c(C4CC4)c21)CCNCC3 [Example 287] | ≥ 200 | 1 | 97 |  |  |  |
| COCc1cccc(CN2CCOc3cc4c(c(C5CC5)c32)CCNCC4)c1.O=C(O)/C=C/C(=O)O [Example 288] | ≥ 200 | 0.64 | 90 | 190 to 193 |  |  |
| COCCN1c2c(cc3c(c2C2CC2)CCNCC3)OC[C@@H]1C [Example 292] | ≥ 200 | 0.65 | 93 |  |  |  |
| N#Cc1cc(F)c(OCCN2CCOc3cc4c(c(C5CC5)c32)CCNCC4)c(F)c1 [Example 297] | ≥ 200 | 0.71 | 96 |  |  |  |
| COc1cccc(CN2CCOc3cc4c(c(C5CC5)c32)CCNCC4)c1 [Example 299] | ≥ 200 | 1 | 98 |  |  |  |

Reference: patent US9598434B2, “Benzazepine compound” (Astellas Pharma Inc., priority 2010, dated 2017)
